From PMC6449356 (Scientific Reports, 2019) come the findings set out here.

Molecules are shown by their SMILES. Converted amounts (≈) assume the structure as drawn. Like-named read-outs stand apart in the source and are kept apart here. Where only a bound is given, the exact number is not on record here.

One assay deals with E. coli MG1655 tolC::kan. Briefly: MIC, micro dilution (CLSI). It counts as cell-based. The note with it: Escherichia coli. As to the method: (§1) The MICs were determined using the micro dilution method recommended by the Clinical and Laboratory Standards Institute (CLSI).
The subject of the next assay is S. aureus S1 LZD^R. Briefly: MIC, micro dilution (CLSI). It counts as cell-based. Conditions: Staphylococcus aureus. As to the method: as §1
Another assay concerns S. aureus ATCC 29213. Briefly: MIC, micro dilution (CLSI). Type of assay: cell-based. The note with it: Staphylococcus aureus, ATCC29213, median value of at least 3 determinations. As to the method:
as §1

For the next assay, the system named is E. coli ATCC 25922. As to the kind of experiment: MIC, micro dilution (CLSI). Conditions: Escherichia coli, ATCC25922. Type of assay: cell-based. As to the method: as §1
The test system of assay [1] is cell-free extracts from E. coli and from S. aureus linezolid-susceptible and -resistant strains. As to the kind of experiment: In vitro translation in cell-free extracts, summary over the three extracts. Type of assay: biochemical. Conditions: range over extracts from E. coli and S. aureus linezolid-susceptible and -resistant strains. As to the method:
(§2) The cell-free protein synthesis reactions were carried out based on a procedure published for E. coli[37] and adapted for S. aureus as described previously for C. difficile. To improve expression from extracts derived from S. aureus, the firefly luciferase reporter gene was resynthesized with codons optimized for S. aureus at GeneArt AG (Regensburg, Germany) and cloned into plasmid pSP-luc_NF Fusion (Promega), replacing the existing luciferase gene. In addition, a 180-bp-long BglII-HindIII promoter fragment of gene abrB310 derived from Clostridium acetobutylicum was synthesized and cloned upstream of the codon-optimized luciferase gene for efficient translation, leading to plasmid pSPAbrlac-luc_Saur. […]
(§3) Test compounds diluted in 8% DMSO were added to reaction buffer containing bacterial extract and SP6 RNA polymerase, yielding final concentrations of 100, 20, 4, 0.8, 0.16, 0.04, 0.008, 0.0016, and 0 µM. […] The luminescence was immediately measured after addition of the luciferase substrate Bright Glo (Promega, E2610) using a Tecan SpectralFluor Plus Reader (GeniosPro) instrument (parameters: integration time 1000 ms; intensity normal). Fifty percent inhibitory concentrations (IC50s) were calculated from the data.

Assay [2] concerns cell-free extract from S. aureus S1 (LZD^R, homozygous G2576U in 23S rRNA). Briefly: In vitro transcription/translation (IVTT) assay, S. aureus S1 LZD-resistant extract. Type of assay: biochemical, Staphylococcus aureus. The note with it: average value and range of three independent experiments. As to the method:
as §2, §3

Assay [3] deals with cell-free extract from S. aureus ATCC 29213 (coupled transcription/translation). As to the kind of experiment: In vitro transcription/translation (IVTT) assay, S. aureus wt extract. Type of assay: biochemical, Staphylococcus aureus. The note with it: S. aureus ATCC 29213 extract, average value and range of three independent experiments. As to the method:
The cell-free protein synthesis reactions were carried out based on a procedure published for E. coli[37] and adapted for S. aureus as described previously for C. difficile. To improve expression from extracts derived from S. aureus, the firefly luciferase reporter gene was resynthesized with codons optimized for S. aureus at GeneArt AG (Regensburg, Germany) and cloned into plasmid pSP-luc_NF Fusion (Promega), replacing the existing luciferase gene. In addition, a 180-bp-long BglII-HindIII promoter fragment of gene abrB310 derived from Clostridium acetobutylicum was synthesized and cloned upstream of the codon-optimized luciferase gene for efficient translation, leading to plasmid pSPAbrlac-luc_Saur. S. aureus bacterial extracts were prepared according to a simplified E. coli procedure using a FastPrep®-24 instrument from Lucerna Chem AG (Cat No. 6004-500) and lysing matrix B (Lucerna Chem, Cat No. 116911100; silica spheres < 100 µm).
Test compounds diluted in 8% DMSO were added to reaction buffer containing bacterial extract and SP6 RNA polymerase, yielding final concentrations of 100, 20, 4, 0.8, 0.16, 0.04, 0.008, 0.0016, and 0 µM. Samples were mixed and pre-incubated for 10 min at RT before 100 ng plasmid pBestluc (E. coli) or 500 ng plasmid pSPAbrlac-luc_Saur (S. aureus) was added. After mixing, the plate was incubated at RT for 90 min. The luminescence was immediately measured after addition of the luciferase substrate Bright Glo (Promega, E2610) using a Tecan SpectralFluor Plus Reader (GeniosPro) instrument (parameters: integration time 1000 ms; intensity normal). Fifty percent inhibitory concentrations (IC50s) were calculated from the data.

Assay [4] relates to cell-free extract from E. coli ATCC 25922 (coupled transcription/translation). Briefly: In vitro transcription/translation (IVTT) assay, E. coli extract. It counts as biochemical, Escherichia coli. The note with it: E. coli ATCC 25922 extract; average value and range of three independent experiments.
The test system of assay [5] is S. aureus linezolid-nonsusceptible strains carrying cfr (12). Briefly: MIC50/MIC90, broth microdilution (CLSI), strain panel. Conditions: linezolid-nonsusceptible S. aureus carrying cfr (12 strains). Type of assay: cell-based, Staphylococcus aureus. An excerpt:
(§4) resistance mechanisms using broth microdilution methods (CLSI).
(§5) Cadazolid Lin e zolid Vancom yc in
(§6) lin e zolid-nonsusceptible (26**)
(§7) * The 12 tested wild-type control strains include methicillin [oxacillin]-resistant [MRSA]
(§8) strains [41.7%] from JMI Laboratories (North Liberty, Iowa).
(§9) ** The 26 clinical strains tested included 12 cfr-positive and 14 23S rRNA mutants [G2576U].
Background: Broth dilution looks for growth in wells or tubes with falling amounts of substance.

Assay [6] has as its system S. aureus wild-type strains (12). The description is as above. The note with it: wild-type S. aureus (12 strains). Type of assay: cell-based, Staphylococcus aureus.
Source text: as §4, §5, §6, §7, §8, §9

The test system of assay [7] is S. aureus linezolid-nonsusceptible G2576U mutants (14). The assay is described as above. It counts as cell-based, Staphylococcus aureus. The note with it: linezolid-nonsusceptible S. aureus G2576U mutants (14 strains).
Source text: as §4, §5, §6, §7, §8, §9

For `O=C(O)c1cn(C2CC2)c2cc(N3CCC(O)(COc4ccc(N5C[C@H](CO)OC5=O)cc4F)CC3)c(F)cc2c1=O` [Cadazolid], the minimal inhibitory concentration (MIC) in the assay on E. coli MG1655 tolC::kan was at most 0.063 µg/mL; in the assay on S. aureus S1 LZD^R, 1 µg/mL (≈ 1.71 µM); against S. aureus ATCC 29213, 0.5 µg/mL (≈ 0.854 µM); in the assay on E. coli ATCC 25922 (E. coli ATCC 25922, median value of at least 3 determinations, read-out: MIC), 8 µg/mL (≈ 13.7 µM). In addition, the IC50 was 240 to 330 nM in [1], 330 nM in [2], 320 nM in [3] and 240 nM in assay [4]. The MIC50 in assay [5] turned out to be 0.25; in assay [6] it was 0.25; in assay [7] it was 0.5. In addition, the values for the MIC90 in [5], in assay [6] and in [7] were 0.5, 0.25 and 0.5, respectively.
On to `CC(=O)NC[C@H]1CN(c2ccc(N3CCOCC3)c(F)c2)C(=O)O1` [Linezolid], for which the MIC with E. coli MG1655 tolC::kan was 8 µg/mL (≈ 23.7 µM); against S. aureus S1 LZD^R it was 32 µg/mL (≈ 94.9 µM); in the assay with S. aureus ATCC 29213 it was 2 µg/mL (≈ 5.93 µM); in the assay with E. coli ATCC 25922, above 32 µg/mL. Further, the IC50 in [2] was 7030 nM; in assay [3], 2610 nM; in assay [3] (listed as LZD), 2600 nM; in [4], 4030 nM. Further, the MIC50 amounted to 8 in assay [5], 1 in assay [6] and 8 in assay [7]. Also, the results for the MIC90 in assay [5], in assay [6] and in assay [7] were 8, 1 and 16, respectively.
`CN[C@H](CC(C)C)C(=O)N[C@H]1C(=O)N[C@@H](CC(N)=O)C(=O)N[C@H]2C(=O)N[C@H]3C(=O)N[C@H](C(=O)N[C@H](C(=O)O)c4cc(O)cc(O)c4-c4cc3ccc4O)[C@H](O)c3ccc(c(Cl)c3)Oc3cc2cc(c3O[C@@H]2O[C@H](CO)[C@@H](O)[C@H](O)[C@H]2O[C@H]2C[C@](C)(N)[C@H](O)[C@H](C)O2)Oc2ccc(cc2Cl)[C@H]1O` [Vancomycin]: the MIC50 in assay [5] turned out to be 0.5; in assay [6], 1; in [7] it was 1. The MIC90 in assay [5], in [6] and in [7] was 1 each time.

The term MIC denotes the lowest concentration that inhibits growth of the organism. As usually defined, the IC50 is the midpoint of a concentration-inhibition curve.
